Reference: patent US20020169264A1, “Polymers incorporating peptides” (The Council of the Queensland Institute of Medical Research, priority 1997, published 2002)
Like-named read-outs stand apart in the source and are kept apart here. Where no end group is shown, it is not given here. The star is where a group is joined. Acryloyl = C=CC(=O)*; Ahx = NCCCCCC(=O)O

What was measured:
[1] = tested on: virus infected P815 mastocytoma cells; format: in vivo, BALB/c mice
Balb/c mice = experiment: Immunogenicity in Balb/c mice, antibody titre by ELISA; format: in vivo; details: for antibody response (levels of antibody elicited): 0.5 nmole dose, FIG. 11B
Description: (§1) Female Balb/c mice, 6 to 8 weeks of age, were used. For antibody studies, animals were inoculated i.p. with synthetic peptide in monomeric or polymeric form and emulsified in complete Freund's adjuvant (CFA). Mice received 5 or 0.5 nmoles of monomeric peptide or the equivalent number of moles of determinant within a polymer. For T-cell studies, mice were inoculated s.c. in the hind footpads with a total of 10 nmoles of T-cell determinant in CFA.
Enzyme-linked immunosorbent assays (ELISAs) were performed as described^23 using microtitre plates coated with a solution of 5μg/ml peptide or polymer antigen. Bound antibody was detected by incubation with horseradish peroxidase-conjugated rabbit immunoglobulin (Ig) directed against mouse Ig (DAKO, Denmark) for 1.5h followed, after washing, with substrate (0.2mM 2,2′-azino-bis 3-ethylbenzthiazoline-sulphonic acid in 50mM citric acid pH4.0 containing 0.004% v/v hydrogen peroxide). The absorbance at a wavelength of 405nm was determined using a Labsystems Multiscan Multisoft microplate reader (Pathtech Diagnostics Pty. Ltd., Aust.) and antibody titres were expressed as the reciprocal of the antibody dilution giving an absorbance of 0.25, which corresponds to at least five times the background value.

MAb 2/1 = experiment: ELISA, MAb 2/1 binding to coated peptide or polymer; parameters: species or system mouse
lymph node T cells = experiment: T cell proliferation assay, peptide monomer-primed lymph node T cells; format: cell-based, mice; details: FIG. 10
Description: Lymph node T cells were derived from pooled inguinal and popliteal lymph node cell suspensions of mice primed seven days previously with peptide. T cells were enriched by passage through nylon wool columns^24.
as §1
T cells were cultured (at a concentration of 3×10^5 cells/well for lymph node T cells and 1×10^4/well for the T-cell clone) in 96-well nmicrotitre trays (Nunc, Denmark) in the presence of syngenic γ-irradiated (2,200 R, ^60Co source) spleen cells as a source of antigen presenting cells, together with antigen in a total volume of 250μl^22, 23, The culture medium was RPMI 1640 supplemented with 10% heat inactivated (56° C., 30min) fetal calf serum, 2mM glutamine, 2mM sodium pyruvate, 0.1mM 2-mercaptoethanol, 30μg/ml gentamicin, 100 I.U./ml penicillin and 100μg/ml streptomycin. […] Cells were then harvested onto glass fibre filters and incorporation of ^3H-thymidine was measured on a Hewlett Packard Matrix 9600 direct β-counter.

MAb 1/1 = experiment: ELISA, MAb 1/1 binding to coated peptide or polymer; parameters: species or system mouse; details: persulphate to peptide ratios 0.1:1 to 1,000:1, in the presence of acrylamide; FIG. 8

**Q.** With “acryloyl-Ahx-CTL: acryloyl-Ahx derivative of the CTL epitope TYQRTRALV, not polymerised ({Acryloyl-Ahx}-TYQRTRALV)” as the substance, how does the “CTL response (priming)” value ([1]; 10 μg peptide s.c. in CFA, virus infected targets, FIG. 15) read?
**A.** Its value is “did not induce a CTL response”.

**Q.** For TLKLATG [P1], which “antibody response (levels of antibody elicited)” value (Balb/c mice) is on record?
**A.** Its value is “no antibody”.

**Q.** What about the “binding of MAb 2/1 to coated polymers” value (MAb 2/1; FIG. 9) of the same substance?
**A.** The value was “slightly reduced ability to interact with MAb”.

**Q.** How did the “CTL response (priming)” value ([1]; mouse, in vivo, sc) turn out when TYQRTRALV [P7] was run?
**A.** Its value is “did”.

**Q.** Which “recognition by polyclonal lymph node T cells raised against monomeric T-cell determinant peptide” value (lymph node T cells) does the source give for ALNNRFQIKGVELKS [P3] here?
**A.** The value was “equal efficiency”.

**Q.** What does the source list for PKYVKQNTLKLATGMRNVPEKQT [P5]?
**A.** primary antibody response (Balb/c mice; 5 nmoles of peptide epitope, i.p. in CFA): very weak; rise of antibody response following the second inoculation (Balb/c mice; 5 nmoles of peptide epitope, secondary vs primary): ~10 fold; antigenic activity (MAb 2/1 binding) after exposure to ammonium persulphate (MAb 2/1; persulphate to peptide ratios 0.1:1 to 1,000:1, in the presence of acrylamide, FIG. 8): little or no effect on antigenic activity; antigenic activity (MAb 1/1 binding) after exposure to ammonium persulphate (MAb 1/1): little or no effect on antigenic activity

**Q.** GMRNVPERKQT [P2] was tested. Which “antibody response (levels of antibody elicited)” value (Balb/c mice) did it give?
**A.** The value was “no antibody”.
